Data reported in article PMC10565663, “^177Lu-labeled PSMA targeting therapeutic with optimized linker for treatment of disseminated prostate cancer; evaluation of biodistribution and dosimetry” (Frontiers in Oncology, 2023).
Several values for one entry are separate records, joined by “and”; a condition that tells them apart may be missing. Equal entries are not always repeated.

Columns and labels:
PC3-pip cells = test: Cellular processing and internalization (acid wash method); type: cell-based, human; details: 2 nM, after 24 h of continuous incubation at 37°C
Experimental: Internalization of radiolabeled PSMA binders was evaluated using an acid wash method ([21]). PC3-pip cells were incubated with 2 nM of [^177Lu]Lu-BQ7876 or [^177Lu]Lu-PSMA-617 in RPMI medium at 37°C (5% of CO2). At predetermined time points (1, 2, 6 and 24 h), cells were treated with 0.5 mL of 4 M urea solution in a 0.2 M glycine buffer, pH 2.5, for 5 minutes on ice. After that, the acidic supernatant was collected and this fraction was considered to be a membrane-bound activity. To lyse the cells, 0.5 mL of 1 M sodium hydroxide solution was added and incubated at 37°C for at least 20 min. Alkaline-containing solution was collected, and the basic fraction was considered to be an internalized activity. Samples were measured using gamma-counter.

[1] = biological target: T1, PSMA-expressing PC3-pip cells (Homo sapiens, UniProt Q04609); test: In vitro binding specificity test (PSMA saturation with unlabeled compound); details: 1 nM radiolabeled compound, 100-fold molar excess unlabeled, 1 h 37°C
T1 construct: expressed in transfected cells; host or cells: PC3-pip (PSMA-transfected PC-3 human prostate cancer cells), provided by Prof; M. Pomper, Johns Hopkins University
Experimental: The human prostate cancer cell line PC-3 was purchased from the American Type Culture Collection (ATCC; LGC Promochem, Borås, Sweden). The cells were cultured in Roswell Park Memorial Institute (RPMI) 1640 medium supplemented with 10% fetal bovine serum (FBS), 2 mM L-glutamine, penicillin 100 IU/mL and 100 µg/mL streptomycin at 37°C and 5% CO2 atmosphere. The PSMA-transfected and overexpressing variant of PC3 cell line, PC3-pip, was provided by Prof. M. Pomper, Department of Radiology, the Johns Hopkins University, Baltimore, MD, US. PC3-pip cells were cultured in two types of RPMI media. The first one contained 20% fetal bovine serum, 1% of L-glutamine (5 mL) and 1% of PEST (penicillin and streptomycin 5 mL). The second one contained 20% fetal bovine serum, 1% of L-glutamine (5 mL) and 1% of PEST (penicillin and streptomycin 5 mL) and 10 μg/mL of pyramycin. The second media is used every second passage to maintain clone selection. All in vitro experiments were performed in triplicates. For a typical experiment, cells were seeded one day before the experiment in Petri dishes (35 mm) in the amount of 1×10^6 cell/dish.
[…] specificity was tested using a saturation method. Before the experiment, cells were washed with PBS solution. […] Cell-associated activity was measured using gamma-counter and presented as the percentage of added activity.

PC3-pip xenografts [2] = test: Biodistribution in mice bearing PSMA-positive PC3-pip xenografts; type: in vivo, Balb/c nu/nu mice; details: 3 h p.i.; PC3-pip xenograft mice; n=4
Experimental: To prepare xenografts, PC3-pip and PC3 (PSMA-negative control) cells (10^7 cells in 100 μL of media) were subcutaneously injected in the hind legs of female Balb/c nu/nu mice. At the time of the experiment, the average mouse weight was 18 ± 2 g. The average tumor weight was 0.2 ± 0.1 g.
Biodistribution of [^177Lu]Lu-BQ7876 was determined at 1, 3, 24, 48 and 130 hours p.i. Mice were injected with [^177Lu]Lu-BQ7876 (280 kBq/mouse). The amount of substance was adjusted to 80 pmol/mouse using unlabeled substance. A group of four animals per data point was used. The labeled peptide was injected into the tail vein. Mice were anaesthetized by a lethal intraperitoneal injection of ketamine and xylazine mixture solution (the dose of ketamine was 250 mg/kg and the dose of xylazine was 25 mg/kg) and sacrificed. Mice were exsanguinated by heart puncture using a heparinized syringe under anaesthesia. Organs and tissues were excised and weighed, and the activity of each organ was measured. The percentage of injected dose per gram of sample (%ID/g) was calculated. Activity in the rest of the gastrointestinal tract was measured to estimate hepatobiliary excretion. The rest of the body was also collected and its activity was measured. […]

[3] = design: method as in Kuo et al. 2018; details: humans; extrapolated from mouse biodistribution; ref Kuo et al. 2018; cited from earlier work
PC3-pip xenografts [4] = test: microSPECT/CT imaging of mice bearing PC3-pip xenografts; type: in vivo, Balb/c nu/nu mice; details: 3 h pi, 80 pmol/mouse
Experimental: To confirm the biodistribution data, imaging of mice bearing PC3-pip xenografts was performed. The mice were injected with [^177Lu]Lu-BQ7876 (900 kBq/mouse, 80 pmol/mouse) or [^177Lu]Lu-PSMA-617 (1200 kBq/mouse, 80 pmol/mouse). Imaging was performed at 3 h pi using nanoScan SPECT/CT (Mediso Medical Imaging Systems, Hungary) according to the protocol describe earlier ([25]).

[5] = biological target: T2, PSMA-expressing PC-3pip prostate cancer cells (Homo sapiens, UniProt Q04609); test: Half-maximal inhibitory concentration: inhibition of [^111In]In-PSMA-617 binding; details: vs [^111In]In-PSMA-617 (1 nM); PC3-pip cells; 4°C, 4 hours
T2 construct: expressed in transfected cells; host or cells: PC3-pip (PSMA-transfected PC-3 human prostate cancer cells), provided by Prof; M. Pomper, Johns Hopkins University
Experimental: For the determination of a half-maximal inhibitory concentration (IC50), PSMA-617 was labeled with indium-111. For this purpose, 2 nmol PSMA-617 were dissolved in 40 µL 0.2 M ammonium acetate, pH 5.5, and 12 µL (10 MBq) of [^111In]InCl3 solution in 0.01 M HCl was added. The mixture was vortexed and incubated at 85 °C for 30 min. The yield was determined using iTLC eluted with 0.2 M citric acid, pH 2.0. Since the radiochemical yield was over 98%, [^111In]In-PSMA-617 was used in further experiments without purification.
For determination of IC50, BQ7876 and PSMA-617 were loaded with non-radioactive Lu of natural isotopic composition (^natLu) by incubation with a three-fold molar excess of ^natLuCl3 at 85 °C for 30 min in 0.2 M ammonium acetate, pH 5.5. Cells were washed with a PBS solution and incubated at 4°C for 4 hours with [^111In]In-PSMA-617 (1 nM) in the presence of increasing concentrations (range 0 to 2 μM) of competitors, ^natLu-BQ7876 or ^natLu-PSMA-617. Thereafter, cells were detached, collected, and cell-associated activity was measured using gamma-counter. The half-maximal inhibitory concentration was calculated using GraphPad software (version 9.3.1 for Windows, GraphPad Software, LLC. CA, USA).

T2 sequence (Q04609 whole entry): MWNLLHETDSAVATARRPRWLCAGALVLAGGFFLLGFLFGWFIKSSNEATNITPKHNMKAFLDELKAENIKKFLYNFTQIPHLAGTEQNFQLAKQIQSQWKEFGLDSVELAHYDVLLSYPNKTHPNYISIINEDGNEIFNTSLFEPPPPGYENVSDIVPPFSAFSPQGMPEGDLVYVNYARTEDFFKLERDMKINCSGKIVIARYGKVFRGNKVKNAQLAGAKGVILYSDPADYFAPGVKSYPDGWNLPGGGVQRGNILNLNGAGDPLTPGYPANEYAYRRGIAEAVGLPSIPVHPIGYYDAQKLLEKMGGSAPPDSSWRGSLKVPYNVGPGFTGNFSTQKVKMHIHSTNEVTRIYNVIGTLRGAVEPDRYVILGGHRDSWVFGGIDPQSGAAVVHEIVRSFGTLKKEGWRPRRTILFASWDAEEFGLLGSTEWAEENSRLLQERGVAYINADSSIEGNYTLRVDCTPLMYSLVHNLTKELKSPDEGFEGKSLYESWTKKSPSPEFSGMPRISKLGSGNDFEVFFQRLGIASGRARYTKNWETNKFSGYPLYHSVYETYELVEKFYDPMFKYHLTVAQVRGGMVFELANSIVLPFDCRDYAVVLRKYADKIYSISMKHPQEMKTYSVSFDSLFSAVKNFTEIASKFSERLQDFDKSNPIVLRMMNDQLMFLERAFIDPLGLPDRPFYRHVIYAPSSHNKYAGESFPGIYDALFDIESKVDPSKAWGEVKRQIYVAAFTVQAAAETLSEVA
T1 sequence (Q04609 whole entry): as above

## O=C(O)CC[C@H](NC(=O)N[C@@H](CCCCNC(=O)[C@H](Cc1ccc2ccccc2c1)NC(=O)[C@H]1CC[C@H](CNC(=O)CN2CCN(CC(=O)O)CCN(CC(=O)O)CCN(CC(=O)O)CC2)CC1)C(=O)O)C(=O)O [PSMA-617]
PC3-pip cells
  internalized fraction of the total cell-associated activity: 10.0 ± 2.9%

## O=C([O-])CN1CCN(CC(=O)[O-])CCN(CC(=O)NC[C@H]2CC[C@H](C(=O)N[C@@H](Cc3ccc4ccccc4c3)C(=O)NCCCC[C@H](NC(=O)N[C@@H](CCC(=O)O)C(=O)O)C(=O)O)CC2)CCN(CC(=O)[O-])CC1.[111In+3] [[^111In]In-PSMA-617]
[1]
  Binding of labeled compound to cells after saturation of PSMA with large excess of unlabeled compound: highly significant (p< 5 x 10^-6) reduction of binding

## O=C([O-])CN1CCN(CC(=O)[O-])CCN(CC(=O)NC[C@H]2CC[C@H](C(=O)N[C@@H](Cc3ccc4ccccc4c3)C(=O)NCCCC[C@H](NC(=O)N[C@@H](CCC(=O)O)C(=O)O)C(=O)O)CC2)CCN(CC(=O)[O-])CC1.[177Lu+3] [[^177Lu]Lu-PSMA-617]
PC3-pip xenografts [2]
  Uptake in blood: 0.06±0.02 %IA/g
  Uptake in bone: 0.11±0.02 %IA/g
  Uptake in heart: 0.08±0.07 %IA/g
  Uptake in kidney: 9±3 %IA/g
  Uptake in liver: 0.24±0.02 %IA/g
  Uptake in lung: 0.21±0.07 %IA/g
  Uptake in muscle: 0.07±0.02 %IA/g
  Uptake in pancreas: 0.09±0.04 %IA/g
  Uptake in salivary gland: 0.12±0.04 %IA/g
  Uptake in spleen: 0.5±0.3 %IA/g
  Uptake in tumor: 12±3 %IA/g
[3]
  Absorbed dose, adrenals: 7.64E-03 mGy/MBq
  Absorbed dose, brain: 4.32E-04 mGy/MBq
  Absorbed dose, gallbladder wall: 8.76E-04 mGy/MBq
  Absorbed dose, heart wall: 1.00E-03 mGy/MBq
  Absorbed dose, kidneys: 1.11E-01 mGy/MBq
  Absorbed dose, liver: 1.37E-03 mGy/MBq
  Absorbed dose, lungs: 1.81E-03 mGy/MBq
  Absorbed dose, osteogenic cells: 8.30E-04 mGy/MBq
  Absorbed dose, pancreas: 7.60E-04 mGy/MBq
  Absorbed dose, prostate: 1.17E-03 mGy/MBq
  Absorbed dose, red marrow: 7.59E-04 mGy/MBq
  Absorbed dose, small intestine: 1.72E-03 mGy/MBq
  Absorbed dose, spleen: 4.42E-03 mGy/MBq
  Absorbed dose, stomach wall: 1.69E-03 mGy/MBq
  Absorbed dose, testes: 1.05E-03 mGy/MBq
  Absorbed dose, thymus: 7.19E-04 mGy/MBq
  Absorbed dose, thyroid: 7.11E-04 mGy/MBq
  Absorbed dose, total body: 1.70E-03 mGy/MBq
PC3-pip xenografts [4]
  Activity accumulation in microSPECT/CT imaging: accumulated avidly in tumors
[1]
  Binding of labeled compound to cells after saturation of PSMA with large excess of unlabeled compound: highly significant (p< 5 x 10^-6) reduction of binding

## O=C([O-])CN1CCN(CC(=O)[O-])CCN(CC(=O)NC[C@H]2CC[C@H](C(=O)N[C@@H](Cc3ccc4ccccc4c3)C(=O)NCCCC[C@H](NC(=O)N[C@@H](CCC(=O)O)C(=O)O)C(=O)O)CC2)CCN(CC(=O)[O-])CC1.[Lu+3] [^natLu-PSMA-617]
[5]
  IC50: 61 nM and 60 nM
